Data from patent US20250229006A1, “3D PRINTED ARTIFICIAL BILE DUCTS AND MANUFACTURING METHOD THEREOF” (IUCF-HYU (INDUSTRY-UNIVERSITY COOPERATION FOUNDATION …, priority 2024, published 2025).
“Also recorded” adds a separate entry of the source.

What was measured:
[1] = tested on: human chemically derived hepatic progenitors (hCdHs); experiment: Differentiation of hCdHs into cholangiocytes (hCdH-Chols) on ABD; assay type: cell-based
Source text: In manufacturing a 3D artificial bile duct disclosed in the present specification, cholangiocytes (hCdH-Chols) derived from human chemically derived hepatic progenitors (hCdHs) were used. Because primary cholangiocytes from humans and other mammals are difficult to isolate and propagate in vitro, human chemically derived hepatic progenitors (hCdHs) were utilized for biliary epithelium modeling. To generate hCdHs, human adult hepatocytes isolated from healthy donor livers were directly reprogrammed into bi-potent progenitors through combinatorial treatment with two small molecules, A83-01 and CHIR99021, in the presence of a hepatocyte growth factor (HGF) as described in a recent publication (Y. Kim, K. Kang, S. B. Lee, D. Seo, S. Yoon, […]. Jang, Y. K. Jung, K. G. Lee, V. M. Factor, J. Jeong, D. Choi, J Hepatol 2019, 70, 97.). A cholangiocyte differentiation protocol was applied when hCdHs reached a passage 3. The hCdHs cultured for 14 days in a cholangiocyte differentiation medium comprising Na-taurocholate (100 uM) and CHIR99021 ([…]) in the presence of a HGF for hCdH-Chols differentiation. The ABDs comprising the inner fibrous layer electrospun using 21 G and 27 G needles by the method of Example 2 were treated with UDCA, and after 50 days, whether differentiation into cholangiocytes using human chemically derived hepatic progenitors (hCdHs) is promoted was evaluated. As a control group, a 3D ABD untreated with UDCA was compared.

[2] = Evaluation of bile stones dissolution capacity; details: 0.5% UDCA, 37° C. with constant movement, 120 hours, bile stone weights measured every 24 hours; compared with water, EDTA, MTBE, Paclitaxel, Gemcitabine
Description: Pigment bile stones were stored in water, 1% ethylenediaminetetraacetic acid (EDTA), 0.5% ursodeoxycholic acid (UDCA), 99% methyl tert-butyl ether (MTBE), 20 μg/ml of Paclitaxel, and 200 uM of Gemcitabine, observed for 120 hours at 37° C. with constant movement, and the weights of the bile stones were measured every 24 hours to evaluate bile stone dissolution capacity (FIG. 1).

C[C@H](CCC(=O)O)[C@H]1CC[C@H]2[C@@H]3[C@@H](O)C[C@@H]4C[C@H](O)CC[C@]4(C)[C@H]3CC[C@]12C [UDCA, ursodeoxycholic acid]
differentiation of hepatic progenitors (hCdHs) into cholangiocytes (hCdH-Chols) ([1]; ABD treated with UDCA, after 50 days, vs 3D ABD untreated with UDCA): promoted differentiation
attachment of cells to the bile ducts by nanofibers of the inner fibrous layer ([1]; UDCA present in inner fibrous layer of ABD vs 3D ABD untreated with UDCA): better attached cells to the bile ducts
expression of cholangiocyte markers in hCdH-Chols ([1]; after a period of differentiation): high levels
bile stone dissolution capacity [2]: dissolved the most; also recorded: significantly increased compared to other solvents
